Data set [1] can be described thus: Cytotoxicity against human H460 cells by SRB assay. To be noted: NCI-H460. The class given is functional, cell-based.
A further data set relates to A549. Description: Cytotoxicity against human A549 cells by SRB assay. The class given is functional, cell-based. For orientation: Sulforhodamine B stains cellular protein and so reports cell mass.
Data set [2] is described as follows: Cytotoxicity against human KB/VCR cells by SRB assay. In kind it is functional, cell-based.
In a further data set the test system is KB. Nature of the data set: Cytotoxicity against human KB cells by SRB assay. The class given is functional, cell-based.
A short description of data set [3]: Stability of the compound in DMSO by HPLC analysis. In kind it is physicochemical.

Structures are written as SMILES. Numbered stars: 1 amine (or outer) side, 2 acyl side, 3 side chain; on linkers, the order of the positions; unused ones are H or OH. Bridge positions count the residues as written; N and C are the ends. Square brackets hold non-standard residues; d marks the D form. Peptide text beside a SMILES is read from it. X1 = C#CCCC[C@H](O[*:2])C(C)(C)C(=O)[*:1]; Hmp(2R,3S) = CC[C@H](C)[C@@H](O)C(=O)O; NMeV = CN[C@H](C(=O)O)C(C)C

For `C#CCCC[C@@H]1OC(=O)[C@H]([C@@H](C)O)NC(=O)[C@H](C(C)C)N(C)C(=O)[C@@H]2CCCN2C(=O)[C@@H]([C@@H](C)CC)OC(=O)[C@H](C(C)C)N(C)C(=O)[C@H](C(C)C)NC(=O)C1(C)C` [VIEQUEAMIDE A] (V[NMeV][Hmp(2R,3S)]P[NMeV]T; linker N-C via X1), the half-maximal inhibitory concentration (IC50) (in data set [1]; in the data set on A549; in data set [2]; in the data set with KB) was below 100 µM each time. Besides, the Stability entry in data set [3] is reported as “Unstable”.

Source of the values: ChEMBL document CHEMBL2375354, “Total synthesis of the marine cyclic depsipeptide viequeamide a” (J Nat Prod, 2013).
